Laboratory results reported in US20200030259A1, “Antiestrogens and/or Aromatase Inhibitors for Use in Treating Obesity and Related Symptoms” (Repros Therapeutics Inc., priority 2016, published 2020).

Legend:
[1] = system: obese men with acquired hypogonadotropic hypogonadism; experiment: Phase 2 clinical trial: morning testosterone; format: in vivo, human; details: p<0.0001, FIG. 1B
Description: 50 adult male subjects are enrolled in the study with an average age of 43.3 (stdev 9.2), average BMI of 36.8 (stdev 3.2), average waist size of 46.9″ (stdev 4.1) and average body fat percentage of 38.1 (stdev 5.2). Average baseline testosterone levels in the subjects was 221.9 ng/dl (stdev 52.7), average estradiol level in the subjects was 48.1 μg/ml (stdev 14.8) and the average T:E ratio was 4.95 (stdev 1.7; normal range of T:E is 20-25). […] The subjects were provided a low calorie commercial diet for 6 months, gym membership for 15 month and access to a personal trainer for 6 months. Subjects were randomized to receive treatment with 12.5 mg enclomiphene/day, 25 mg enclomiphene/day or placebo via oral capsule over a three month period.

[2] = system: obese men with acquired hypogonadotropic hypogonadism; experiment: Phase 2 clinical trial: lean mass by dual energy X-ray Absorptiometry (DXA); format: in vivo, human; details: placebo arm lost lean mass, FIG. 2A
From the text: (§1) FIGS. 2A and 2B illustrate lean mass (as a percentage of total mass in kilograms, measured by dual energy X-ray Absorptiometry (DXA)) and total testosterone levels at baseline and at the 3 month and 6 month time points in the subjects described at FIGS. 1A and 1B.
(§2) A randomized double blind placebo-controlled Phase 2 clinical study (duration=6 months) was initiated to study the effects of trans-clomiphene on testosterone, metabolic function, weight, body composition, measures of strength and quality of life assessments (made throughout the study) in obese men with acquired hypogonadotropic hypogonadism.
(§3) 50 adult male subjects are enrolled in the study with an average age of 43.3 (stdev 9.2), average BMI of 36.8 (stdev 3.2), average waist size of 46.9″ (stdev 4.1) and average body fat percentage of 38.1 (stdev 5.2). Average baseline testosterone levels in the subjects was 221.9 ng/dl (stdev 52.7), average estradiol level in the subjects was […] (stdev 14.8) and the average T:E ratio was 4.95 (stdev 1.7; normal range of T:E is 20-25). The top four reported baseline symptoms (by % of enrollees) were (i) fatigue/lack of energy (96%) (ii) depression, irritability, lack of focus (74%) (iii) poor libido (60%) and (iv) muscle weakness (48%). The subjects were provided a low calorie commercial diet for 6 months, gym membership for […] and access to a personal trainer for 6 months. […]

[3] = system: obese men with acquired hypogonadotropic hypogonadism; experiment: Phase 2 clinical trial: free and total (LCMS) testosterone; format: in vivo, human; details: enclomiphene arms; FIG. 2B
From the text: as §1, §2, §3

[4] = system: obese men with acquired hypogonadotropic hypogonadism; experiment: Phase 2 clinical trial: DISF-SR, IWQOL and SF-36 total scores; format: in vivo, human; details: enclomiphene arms; 3 and 6 months; n=15 per group; FIG. 3
From the text: FIG. 3 illustrates percent improvement from baseline total score at the 3 month and 6 month time points in subjects described at FIGS. 1A and 1B (n=15 per group) in the DISF-SR (Derogatis Interview for Sexual Functioning), IWQOL (Impact of Weight on Quality of Life questionnaire) and SF-36 (Medical Outcomes Study Short Form).
as §2
50 adult male subjects are enrolled in the study with an average age of 43.3 (stdev 9.2), average BMI of 36.8 (stdev 3.2), average waist size of 46.9″ (stdev 4.1) and average body fat percentage of 38.1 (stdev 5.2). Average baseline testosterone levels in the subjects was 221.9 ng/dl (stdev 52.7), average estradiol level in the subjects was […] (stdev 14.8) and the average T:E ratio was 4.95 (stdev 1.7; normal range of T:E is 20-25). The top four reported baseline symptoms (by % of enrollees) were (i) fatigue/lack of energy (96%) (ii) depression, irritability, lack of focus (74%) (iii) poor libido (60%) and (iv) muscle weakness (48%). The subjects were provided a low calorie commercial diet for 6 months, gym membership for […] and access to a personal trainer for 6 months. Subjects were randomized to receive treatment with 12.5 mg enclomiphene/day, 25 mg enclomiphene/day or placebo via oral capsule over a […] period.

[5] = system: subjects in need of treatment for obesity; experiment: Treating obesity with an antiestrogen (Example 2); format: in vivo; details: 5 mg to 100 mg daily or every other day for at least three months
Description: Subjects in need of treatment for obesity are administered an amount of an antiestrogen (e.g. trans-clomiphene or a salt or analogue thereof) in an amount effective to increase LH and FSH to therapeutic levels over a treatment period of sufficient duration to achieve the desired result, preferably for a period of at least 3 months during which an effective dose is administered daily or every other day. FSH and LH levels may be assessed prior to initiating treatment and then monitored through the course of treatment to ensure that therapeutic levels of the pituitary hormones are reached. By way of nonlimiting example, a subject with obesity is administered 5 mg to 100 mg trans-clomiphene daily or every other day for a treatment period of at least three months, preferably at least six months.

## CCN(CC)CCOc1ccc(/C(=C(/Cl)c2ccccc2)c2ccccc2)cc1 [enclomiphene, trans-clomiphene]
[1]; 12.5 mg enclomiphene/day oral capsule with weight loss regimen, baseline ~235 ng/dl
  morning testosterone at six months: ~505 ng/dL
[1]; 25 mg enclomiphene/day oral capsule with weight loss regimen, baseline ~285 ng/dl
  morning testosterone at six months: ~605 ng/dL
[2]; 12.5 mg enclomiphene arm
  lean mass (percentage of total mass, DXA) at six months: gained lean mass
[2]; 25 mg enclomiphene arm
  lean mass (percentage of total mass, DXA) at six months: gained lean mass
[3]
  free testosterone, baseline to six month time point: increases
  total (LCMS) testosterone, baseline to six month time point: increases
[4]
  percent improvement relative to baseline in DISF-SR total score: statistically significant from baseline
  percent improvement relative to baseline in IWQOL total score: statistically significant from baseline
  percent improvement relative to baseline in SF-36 total score: statistically significant from baseline
[5]
  symptoms of obesity during treatment: reduction in one or more symptoms of obesity is observed
